Experimental data: patent US20050026977A1, “Zonisamide use in eating disorders” (priority 2002, published 2005)

Experiments:
[1] = preliminary studies; cited from earlier work
[2] = tested on: obese subjects (BMI of 30-44 kg/m^2); experiment: 16-week randomized, double-blind, placebo-controlled trial of zonisamide in obesity; type: in vivo, human
Experimental: Objective: Short-term efficacy and safety of zonisamide in the treatment of obesity was evaluated. Inclusion Criteria: (1) Age 21-50; (2) BMI of 30-44 kg/m^2; and (3) Otherwise healthy as determined by the principal investigator. […] Method: 60 subjects were assigned to receive zonisamide or placebo (1:1 ratio) in a randomized, double-blind fashion for 16 weeks in addition to a slightly hypocaloric (500 kcal/day deficit) diet. Zonisamide dosing was flexible with a maximum of 600 mg/day. Zonisamide was started at 100 mg/d. Based on tolerability, the dose was titrated up as follows: Weeks 3-4: 200 mg/d; Weeks 5-6: 300 mg/d; Weeks 7-12: 400 mg/d. At the end of week 12, for those where at least 5% weight loss was not achieved, the dose was further increased to 600 mg/d. The entire dose is given at bedtime. However, based on tolerability, a part of the daily dose may be given in the morning.

patients = patients treated with zonisamide; cited from earlier work
[3] = in vivo; cited from earlier work
[4] = tested on: cultured mouse spinal cord neurons; details: 10-30 μg/mL; cited from earlier work
rat hippocampal slices = details: 10-30 μg/mL; cited from earlier work
[5] = tested on: GABA/benzodiazepine receptor ionophore complex; details: in vitro; cited from earlier work
kindled rat model = details: in vivo; cited from earlier work
cats [6] = details: electrical stimulation of the visual cortex; cited from earlier work
rats = details: cortical application of tungstic acid gel in rats; cited from earlier work
cats [7] = details: cortical freezing in cats; cited from earlier work
beagle dogs = details: dog, in vivo, 75 mg/kg/day; cited from earlier work

| Compound | effect on appetite and binging [1] | average bodyweight lost ([2]; 16-week period, all randomized subjects, last observation carried forward, flexible dosing, maximum 600 mg/day, plus hypocaloric diet, p<0.0001 vs placebo) [%] | greater weight loss over placebo treatment (random coefficient regression estimate) ([2]; 16-week study duration, effects for age, race, gender, BMI, percent body fat, p<0.0001) [kg] | efficacy versus placebo as adjunct to hypocaloric diet in treatment of obesity ([2]; 16 weeks) | tolerability / side effects ([2]; 16 weeks, up to 600 mg/day) | subjects who lost ≥5% weight ([2]; 16 weeks, responders/subjects in group, p<0.0003 vs placebo) | course of weight loss over time (patients) | weight loss as adverse event (patients) | adverse effect on appetite [3] | effect on postsynaptic GABA or glutamate responses [4] | effect on synaptically-driven electrical activity [4] | effect on neuronal or glial uptake of [^3H]-GABA (rat hippocampal slices) | binding to GABA/benzodiazepine receptor ionophore complex [5] | anticonvulsant activity in threshold for generalized seizures (kindled rat model) | duration of cortical focal seizures (cats [6]) | interictal spikes and secondarily generalized seizures (rats) | interictal spikes and secondarily generalized seizures (cats [7]) | body weight change in chronic toxicity test (beagle dogs) |
| --- | --- | --- | --- | --- | --- | --- | --- | --- | --- | --- | --- | --- | --- | --- | --- | --- | --- | --- |
| CC1(C)O[C@@H]2[C@@H](CO[C@@]3(COS(N)(=O)=O)OC(C)(C)O[C@@H]23)O1 [topiramate] | suppress the appetite and to reduce the amount of binging |  |  |  |  |  |  |  |  |  |  |  |  |  |  |  |  |  |
| NS(=O)(=O)Cc1noc2ccccc12 [zonisamide, 1,2-benzisoxazole-3-methanesulfonamide] |  | 5.98 | 4.99 | significantly more effective than placebo | tolerated well with minimal side effects | 17/30 | the weight loss did not continue over time | weight loss was an adverse event | loss of appetite as an adverse effect | without affecting postsynaptic GABA or glutamate responses | suppresses synaptically-driven electrical activity | without affecting | binds to the GABA/benzodiazepine receptor ionophore complex in an allosteric fashion which does not produce changes in chloride flux | demonstrated an anticonvulsant activity | reduced the duration of cortical focal seizures | suppresses both interictal spikes and the secondarily generalized seizures | suppresses both interictal spikes and the secondarily generalized seizures | early body weight losses occurred |
